Read-outs that look alike come from different tables or passages of the source.
Key:
pBTL-1 lpcA culture = assay type: cell-based, E. coli; details: for Specific Growth: n=3
Procedure: (§1) Certain experiments described herein were performed in E. coli BW25113 recA-, with the kanamycin resistance gene removed.
(§2) Cultures were grown in 10 ml MOPS minimal media, 100 μg carbenicillin/ml, and either 1 g furfural/1 supplemented, 2 g HMF/1, or 4 g acetate/1, in 15 ml conical tubes at 37° C. The optical density of 1 ml culture was measured with a spectrophotometer at 600 nm. A natural log transformation of the data was then calculated and then a regression line was fit to the data to calculate specific growth, which is […] to the culture doubling time. The blank vector, pBTL-1, served as the control. The lpcA gene was cloned into the pBTL-1 using standard cloning techniques and primers designed to amplify the gene from template DNA.

[1] = test system: pBTL-1 Control (blank vector) culture; assay: Aerobic growth (specific growth, final OD600) in MOPS minimal media with inhibitor, control; assay type: cell-based, E. coli; details: for Specific Growth: n=3
Procedure: as §1, §2

bacterial cultures = details: amino acid 10 mM, acetic acid 2.5 g/L, MOPS minimal medium, FIG. 4
Procedure: In another exemplary method, amino acid supplementation of cultures was observed and illustrated by histogram plot. Overnight cultures were prepared from freezer stocks. Stationary phase overnight cultures were used for a 2.5% inoculation of 5 mL MOPS minimal medium plus carbenicillin. The OD600 was monitored until the culture reached an OD600=0.2. […] Amino acid supplementation was done by preparing stock solutions of amino acids and supplementing the media to a final concentration of 10 mM. Cultures were incubated at 37° C. and were shaken at 225 rpm. OD600 was monitored over the course of exponential growth and final measurements were taken after 24 hours. Specific growth rate was calculated by linear regression on the natural logarithm of the exponential phase OD600 over time.

cell growth = details: concentrations as low as, cited from earlier work
E. coli LY01 = details: starting pH of 6.0, acid at the IC50 obtained at a neutral pH; cited from earlier work
[2] = test system: BW25113 ArecA cells overexpressing lpcA gene (pLPCA); assay type: cell-based, E. coli; details: for OD600 at 24 hr: pLPCA cells
Procedure: (§3) FIGS. 17A-17B represent methods of identification of a gene related to restoring tolerance. Multiple genome-wide SCALE selection was performed in the presence of ethanol, furfural and acetate respectively. The data set obtained for each compound was compared to the others. Alleles enriched in all cases were identified. […] To restore tolerance, overexpression of identified genes in bacterial cells was performed. For example, lpcA ORF was cloned into the pBTL-1 vector. BW25113 ArecA cells transformed with the blank pBTL-1 vector were used as a control. BW25113 ArecA cells overexpressing lpcA gene were referred to as pLPCA. Cells were inoculated at a standard cell density into MOPS minimal media, supplemented with furfural, acetate or ethanol. After 24 hours, growth of the cells was analyzed.
(§4) The indicated cells were grown in MOPS minimal media supplemented with glucose as a carbon source. Furfural was added to the media at the concentration of 1 g/L. Arabinose was added at 10 mM where indicated to gauge effect of AraC binding. The BW25113 araC::FRT-kan clone corresponds to JW0063, a BW25113 araC knockout mutant ordered from the Keio Collection directly. pBTL-1 represented the blank vector, and pLPCA referred to lpcA gene overexpression. […] To analyze the LPS level in the cells indicated in FIG. 19, LPS are extracted from the cells grown to exponential phase. Loading of LPS for the protein gel is normalized to the cell number. The gel is stained to visualize LPS protein bands after desired separation is obtained.
(§5) BW25113, MG1655, and derivatives were used where indicated. JW0063, an araC mutant of BW25113 was obtained from the Coli Genetic Stock Center (Yale). Overnight bacterial cultures were grown in Luria-Bertani medium with shaking. MOPS minimal medium (previously presented) with 0.2% glucose as a carbon source, was used for all seed cultures and growth studies. Seed cultures were inoculated at 2 v/v % from an overnight culture and were grown to mid-exponential phase. Growth cultures were inoculated with 10 v/v % seed cultures of an OD600 of 0.195-0.200 for an initial optical density of ˜0.02. Carbenicillin and kanamycin were used where appropriate at 100 μg/ml and 30 μg/ml, respectively. The pBTL-1 vector (previously described) was used as the control blank vector for all growth studies. Genome-wide furfural selection

[3] = test system: BW25113 ArecA cells transformed with the blank pBTL-1 vector; assay type: cell-based, E. coli; details: control cells
Procedure: as §3, §4, §5

[4] = furfural vs. furfuryl alcohol; cited from earlier work
membrane integrity = details: cited from earlier work
E. coli MC1022 = details: cited from earlier work
E. coli = details: cited from earlier work
[5] = aerobic growth in 2 g/L hydroxymethyl furfural
[6] = aerobic growth in 4 g/L acetate

O=Cc1ccc(CO)o1 [hydroxymethyl furfural, 5-(hydroxymethyl)-2-furaldehyde]
Final OD600 (24 hr) (pBTL-1 lpcA culture; [5]): 1.014 | Specific Growth (pBTL-1 lpcA culture; [5]): 0.234 h⁻¹ | Final OD600 (24 hr) [1, 5]: 0.170 | Specific Growth [1, 5]: 0.045 h⁻¹

CSCC[C@H](N)C(=O)O [methionine]
effect of amino acid supplementation on growth rate (bacterial cultures): greatest increase in growth rate

CC(=O)O [acetate, acetic acid]
concentration that retards growth (cell growth): 0.5 g/L | acetate concentration shown to inhibit cell growth by 50% (cell growth; minimal media): 0.5 g/L | growth rate, percent that of control growth (E. coli LY01): 0% | improvement of final optical density by pLPCA in BW25113 ([2]; acetate 5 g/l): 47±4% | OD600 at 24 hr ([2]; 10 g/L of acetate): 1.4 | OD600 at 24 hr ([3]; 10 g/L of acetate): 0.75 | Final OD600 (24 hr) (pBTL-1 lpcA culture; [6]): 0.324 | Specific Growth (pBTL-1 lpcA culture; [6]): 0.126 h⁻¹ | Final OD600 (24 hr) [1, 6]: 0.111 | Specific Growth [1, 6]: 0.067 h⁻¹

OCc1ccco1 [furfuryl alcohol]
toxicity on a concentration basis [4]: ~20 g/L | membrane leakage (membrane integrity): significant membrane leakage

O=C(O)c1ccco1 [2-furoic acid]
membrane leakage (membrane integrity): significant membrane leakage

O=CO [formic acid]
growth rate, percent that of control growth (E. coli LY01): 35%

COc1cc(C=O)ccc1O [vanillin, 4-hydroxy-3-methoxybenzaldehyde]
share of the population with membrane destabilization (E. coli MC1022; treatment for one hour at over three times the minimum inhibitory concentration): 29% | share of the population with membrane destabilization (E. coli MC1022; when grown overnight after treatment): 13%

CC(=O)C=O [Methylgloxal]
concentration inhibiting E. coli growth and protein synthesis (E. coli): 0.07 g/L

CC(=O)CCC(=O)O [levulinic acid]
growth rate, percent that of control growth (E. coli LY01): 10%

N=C(N)NCCC[C@H](N)C(=O)O [arginine]
effect of amino acid supplementation on growth rate (bacterial cultures): greatest increase in growth rate

CCO [ethanol]
improvement of final optical density by pLPCA in BW25113 ([2]; ethanol 25 g/l): 37±3% | OD600 at 24 hr ([2]; 25 g/L of ethanol): 1.0 | OD600 at 24 hr ([3]; 25 g/L of ethanol): 0.4

Source: patent US20130217132A1, “METHODS, COMPOSITIONS AND USE FOR ENHANCING CHEMICAL TOLERANCE BY MICROORGANISMS” (priority 2009, published 2013)
